Experimental data: US6376679B2, “Photoprotective/cosmetic compositions comprising novel benz-x-azole-substituted silane/siloxane sunscreens” (Societe L'Oreal S.A., priority 1997, dated 2002)
Where “and” joins values, the source holds several entries; their conditions need not be identical. Equal values may be shown once.

Assay: UV absorption (ethanol)
Assay type: physicochemical
Details: UV spectrum in ethanol; for εmax: at the λmax of the same cell

Compound: C=C(C)Cc1cc(OC)cc(-c2nc3ccccc3[nH]2)c1O [2-(1H-benzimidazol-2-yl)-4-methoxy-6-(2-methyl-allyl)-phenol]
- λmax: 302 nm and 343 nm
- εmax: 18,500 and 16,200

Compound: C=C(C)Cc1cc(C)cc(-c2nc3ccccc3o2)c1O [2-benzoxazol-2-yl-4-methyl-6-(2-methyl-allyl)-phenol]
- λmax: 299 nm and 333 nm
- εmax: 20,130 and 14,180

Compound: C[Si](C)(C)CCCOc1ccc(-c2nc3ccccc3[nH]2)c(O)c1 [Example 3]
- λmax: 333 nm and 318 nm
- εmax: 22,200 and 24,250
